According to ChEMBL document CHEMBL6115043, “Novel 5,6-Fused and 6,6-Fused Bicyclic Compounds as 15-Prostaglandin Dehydrogenase Modulators” (ACS Med Chem Lett, 2025):

Assays:
[1] = target: T1, 15-hydroxyprostaglandin dehydrogenase [NAD(+)] (Homo sapiens, UniProt P15428); assay: Inhibition of 15-PGDH in human A549 cells assessed as increase in IL-1beta-stimulated PGE2 levels measured after 24 hrs by competitive HTRF assay; assay type: cell-based
T1 sequence (P15428 whole entry): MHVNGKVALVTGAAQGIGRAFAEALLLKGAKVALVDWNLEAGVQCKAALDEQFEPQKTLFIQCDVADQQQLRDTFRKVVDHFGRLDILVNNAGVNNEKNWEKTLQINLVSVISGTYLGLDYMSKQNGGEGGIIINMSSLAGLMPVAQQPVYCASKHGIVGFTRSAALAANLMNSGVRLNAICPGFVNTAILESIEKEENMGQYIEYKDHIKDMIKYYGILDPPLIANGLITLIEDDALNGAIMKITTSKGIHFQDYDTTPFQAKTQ

[2] = target: T1, 15-hydroxyprostaglandin dehydrogenase [NAD(+)]; assay: Inhibition of recombinant human 15-PGDH using PGE2 and beta-NAD+ as substrate preincubated for 15 mins followed by substrate addition and measured after 60 mins

IC50 [1] [nM] | IC50 [2] [nM] | Compound
0.05 |  | Cn1cc2cc(-c3ccc4cc([C@]5(O)C[C@@H](C(F)(F)F)C5)sc4n3)cnc2n1
0.05 | 0.22 | Cn1cc2cc(-c3ccc4nc([C@H](O)C5CC(F)(F)C5)sc4n3)cnc2n1
